Experimental findings from US8076285B2, “Lysobactin amides” (Aicuris GmbH & Co. KG, priority 2006, dated 2011) are described below.

Where two headings read alike, the source gives them in different places.

The conditions of this data set: amide bond, 28-membered ring.

Substance “{(3R)-N^2-[(9H-Fluoren-9-ylmethoxy)carbonyl]-3-amino-L-phenylalanyl}-[(3R)-3-hydroxy-L-leucyl]-L-leucyl-[(2R)-2-amino-4-benzyloxycarbonylaminobutyryl]-L-isoleucyl-L-allothreonyl-glycyl-L-seryl-L-serine C^1.9-N^3.1-lactam trifluoroacetate” came in with a ring closure, isolated yield of 85%.

“[(3R)-N^2-(Benzyloxycarbonyl)-3-amino-L-phenylalanyl]-[(3R)-3-hydroxy-L-leucyl]-[3-tertbutyl-L-alanyl]-D-arginyl-L-isoleucyl-L-allothreonyl-glycyl-L-seryl-L-serine C^1.9-N^3.1-lactam trifluoroacetate”: the ring closure, isolated yield was 90%.

For the setting “HATU/NMM, DMF, 0.0 °C”, “N^2.1-(Benzyloxycarbonyl)-[(3R)-3-amino-O-methyl-L-tyrosyl)]-[(3R)-3-hydroxy-L-leucyl]-L-leucyl-D-arginyl-L-isoleucyl-L-allothreonyl-glycyl-[(3S)-3-hydroxy-L-asparaginyl]-L-serine C^1.9-N^3.1-lactam trifluoroacetate” yielded a ring closure, isolated yield of 33%.

For “[(3R)-N^2-(Benzyloxycarbonyl)-3-amino-L-phenylalanyl]-[(3R)-3-hydroxy-L-leucyl]-L-leucyl-D-arginyl-L-isoleucyl-L-allothreonyl-glycyl-L-alanyl-L-serine C^1.9-N^3.1-lactam trifluoroacetate”, the ring closure, isolated yield (HATU/NMM, DMF, 0.0 °C) was determined as 77%.

As to “[(3R)-N^2-(Benzyloxycarbonyl)-3-amino-L-leucyl]-[(3R)-3-hydroxy-L-leucyl]-L-leucyl-D-arginyl-L isoleucyl-L-allothreonyl-glycyl-[(3R)-3-hydroxy-L-asparaginyl]-L-serine C^1.9-N^3.1-lactam trifluoroacetate”, the ring closure, isolated yield came out at 53%.

“[(3R)-N^2-(Benzyloxycarbonyl)-3-amino-L-phenylalanyl]-[(3R)-3-hydroxy-L-leucyl]-L-leucyl-D-arginyl-L-leucyl-L-allothreonyl-glycyl-L-seryl-L-serine C^1.9-N^3.1-lactam trifluoroacetate” returned a ring closure, isolated yield of 87%.

The substance “[(3R)-N^2-(Benzyloxycarbonyl)-3-amino-L-phenylalanyl]-[(3R)-3-hydroxy-L-leucyl]-L-isoleucyl-D-arginyl-L-isoleucyl-L-allothreonyl-glycyl-L-seryl-L-serine C^1.9-N^3.1-lactam trifluoroacetate” yielded a ring closure, isolated yield of 62%.

In turn, “{(3R)-N^2-[(9H-Fluoren-9-ylmethoxy)carbonyl]-3-amino-L-phenylalanyl}-[(3R)-3-hydroxy-L-leucyl]-L-leucyl-(N^6-benzyloxycarbonyl-D-lysyl)-L-isoleucyl-L-allothreonyl-glycyl-L-seryl-L-serine C^1.9-N^3.1-lactam trifluoroacetate” gave a ring closure, isolated yield of 78%.

On to “[(3R)-N^2-(Benzyloxycarbonyl)-3-amino-L-phenylalanyl]-[(3R)-3-hydroxy-L-leucyl]-L-norleucyl-D-arginyl)-L-isoleucyl-L-allothreonyl-glycyl-L-alanyl-L-serine C^1.9-N^3.1-lactam trifluoroacetate”, for which the ring closure, isolated yield worked out at 80%.

As for “[(3R)-N^2-(Benzyloxycarbonyl)-3-amino-L-phenylalanyl]-[(3R)-3-hydroxy-L-leucyl]-L-norvalyl-D-arginyl-L-isoleucyl-L-allothreonyl-glycyl-L-seryl-L-serine C^1.9-N^3.1-lactam trifluoroacetate”, the ring closure, isolated yield was 77%.

The substance “[(3R)-N^2-(Benzyloxycarbonyl)-3-amino-L-phenylalanyl]-[(3R)-3-hydroxy-L-leucyl]-L-leucyl-D-arginyl-L-valyl-L-allothreonyl-glycyl-L-seryl-L-serine C^1.9-N^3.1-lactam trifluoroacetate” returned a ring closure, isolated yield of 91%.

“[(3R)-N^2-(Benzyloxycarbonyl)-3-amino-3-(pyridin-3-yl)-L-alanyl]-[(3R)-3-hydroxy-L-leucyl]-L-leucyl-D-arginyl-L-isoleucyl-L-allothreonyl-glycyl-[(3R)-3-hydroxy-L-asparaginyl]-L-serine C^1.9-N^3.1-lactam bis-trifluoroacetate” showed a ring closure, isolated yield of 61%.

For “[(3R)-N^2-(Benzyloxycarbonyl)-3-amino-L-phenylalanyl]-L-threonyl-L-leucyl-D-arginyl-L-isoleucyl-L-allothreonyl-glycyl-L-seryl C^1.9-N^3.1-lactam trifluoroacetate”, the ring closure, isolated yield turned out to be 73%.

Under “HATU/NMM, DMF, 7.5 mM, 0.0 °C”, “N^2.1-(Benzyloxycarbonyl)-[(3S)-3-amino-O-methyl-D-tyrosyl)]-[(3R)-3-hydroxy-L-leucyl]-L-leucyl-D-arginyl-L-isoleucyl-L-allothreonyl-glycyl-[(3S)-3-hydroxy-L-asparaginyl]-L-serine C^1.9-N^3.1-lactam trifluoroacetate” registered a ring closure, isolated yield of 96%.

As for “{(3R)-N^2-[(9H-Fluoren-9-ylmethoxy)carbonyl]-3-amino-L-phenylalanyl}-[(3R)-3-hydroxy-L-leucyl]-L-leucyl-(N^5-benzyloxycarbonyl-D-ornithyl)-L-isoleucyl-L-allothreonyl-glycyl-L-seryl-L-serine C^1.9-N^3.1-lactam trifluoroacetate”, the ring closure, isolated yield was found to be 48%.

Take “[(3R)-N^2-(Benzyloxycarbonyl)-3-amino-L-phenylalanyl]-[(3R)-3-hydroxy-L-leucyl]-L-leucyl-D-arginyl-L-isoleucyl-L-seryl-glycyl-L-seryl-L-serine C^1.9-N^3.1-lactam trifluoroacetate”: the ring closure, isolated yield came out at 81%.

“[(3R)-N^2-(Benzyloxycarbonyl)-3-amino-L-phenylalanyl]-[(3R)-3-hydroxy-L-leucyl]-L-leucyl-D-arginyl-L-isoleucyl-L-allothreonyl-glycyl-[(3S)-3-hydroxy-L-asparaginyl]-L-alanine C^1.9-N^3.1-lactam trifluoroacetate” yielded a ring closure, isolated yield of 93%.

For the substance “[(3R)-N^2-(Benzyloxycarbonyl)-3-amino-L-phenylalanyl]-[(3R)-3-hydroxy-L-leucyl]-L-leucyl-D-arginyl-L-isoleucyl-L-allothreonyl-D-alanyl-[(3S)-3-hydroxy-L-asparaginyl]-L-serine C^1.9-N^3.1-lactam trifluoroacetate”, the ring closure, isolated yield came to 48%.

For the substance “[(3R)-N^2-(Benzyloxycarbonyl)-3-amino-L-phenylalanyl]-[(3R)-3-hydroxy-L-leucyl]-L-leucyl-D-arginyl-L-isoleucyl-L-allothreonyl-glycyl-glycyl-L-serine C^1.9-N^3.1-lactam trifluoroacetate”, the ring closure, isolated yield stood at 38%.

Take “[(3R)-N^2-(Benzyloxycarbonyl)-3-amino-L-phenylalanyl]-[(3R)-3-hydroxy-L-leucyl]-L-leucyl-D-arginyl-L-isoleucyl-L-leucyl-glycyl-L-seryl-L-serine C^1.9-N^3.1-lactam trifluoroacetate”: the ring closure, isolated yield came to 97%.

For “[(3R)-N^2-(Benzyloxycarbonyl)-3-amino-L-phenylalanyl]-[(3R)-3-hydroxy-L-leucyl]-L-leucyl-D-arginyl-L-isoleucyl-L-allothreonyl-glycyl-[(3S)-3-hydroxy-L-asparaginyl]-L-serine C^1.9-N^3.1-lactam trifluoroacetate”, under “HATU/NMM, DMF, 0.0 °C”, the ring closure, isolated yield came out at 73%.

Regarding “[(3R)-N^2-(Benzyloxycarbonyl)-3-amino-L-phenylalanyl]-[(3R)-3-hydroxy-L-leucyl]-L-leucyl-D-arginyl-[3-trimethylsilyl-L-alanlyl]-L-allothreonyl-glycyl-L-seryl-L-serine C^1.9-N^3.1-lactam trifluoroacetate”, the ring closure, isolated yield came to 51%.

Regarding “[(3R)-N^2-(Benzyloxycarbonyl)-3-amino-L-phenylalanyl]-[(3R)-3-hydroxy-L-leucyl]-L-leucyl-D-arginyl-L-phenylalanlyl-L-allothreonyl-glycyl-L-seryl-L-serine C^1.9-N^3.1-lactam trifluoroacetate”, the ring closure, isolated yield worked out at 76%.

Regarding “[(3R)-N^2-(Benzyloxycarbonyl)-3-amino-L-phenylalanyl]-[(3R)-3-hydroxy-L-leucyl]-L-leucyl-D-arginyl-L-isoleucyl-L-allothreonyl-glycyl-L-asparaginyl-L-serine C^1.9-N^3.1-lactam trifluoroacetate”, where the note is “HATU/NMM, DMF, 0.0 °C”, the ring closure, isolated yield came to 75%.

“{(3R)-N^2-[(9H-Fluoren-9-ylmethoxy)carbonyl]-3-amino-L-phenylalanyl}-[(3R)-3-hydroxy-L-leucyl]-L-leucyl-D-arginyl-L-isoleucyl-L-allothreonyl-glycyl-(N^5-benzyloxycarbonyl-L-ornithyl-L-serine C^1.9-N^3.1-lactam trifluoroacetate” had a ring closure, isolated yield of 88%.

With “[(3R)-N^2-(Benzyloxycarbonyl)-3-amino-L-phenylalanyl]-[(3R)-3-hydroxy-L-leucyl]-L-leucyl-D-arginyl-L-isoleucyl-L-valyl-glycyl-L-seryl-L-serine C^1.9-N^3.1-lactam trifluoroacetate”, the ring closure, isolated yield was determined as 62%.

For “{(3R)-N^2-[(9H-Fluoren-9-ylmethoxy)carbonyl]-3-amino-L-phenylalanyl}-[(3R)-3-hydroxy-L-leucyl]-L-leucyl-D-arginyl-L-isoleucyl-L-allothreonyl-glycyl-[(2S)-2-amino-4-benzyloxycarbonylaminobutyryl]-L-serine C^1.9-N^3.1-lactam trifluoroacetate”, the ring closure, isolated yield is 66%.

Substance “[(3R)-N^2-(Benzyloxycarbonyl)-3-amino-L-phenylalanyl]-[(3R)-3-hydroxy-L-leucyl]-L-valyl-D-arginyl-L-isoleucyl-L-allothreonyl-glycyl-L-seryl-L-serine C^1.9-N^3.1-lactam trifluoroacetate” showed a ring closure, isolated yield of 100%.

“[(3R)-N^2-(Benzyloxycarbonyl)-3-amino-L-phenylalanyl]-[(3R)-3-hydroxy-L-leucyl]-L-leucyl-D-arginyl-L-isoleucyl-L-allothreonyl-D-seryl-L-seryl-L-serine C^1.9-N^3.1-lactam trifluoroacetate” showed a ring closure, isolated yield of 93%.
